Legend:
Type in all cases: in vivo
Kochia (Kochia scoparia) [1] = assay: Test A preemergence; details: Bassia scoparia, pre-emergence, 240 h, 0 to 100 scale where 0 is no effect and 100 is complete control, read-out: Kochia plant response rating
Outline: (§1)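 Visual injury, scored on a 0–100 scale relative to untreated controls, was recorded about 10 d after application. Treatments were a preemergence soil spray over planted seeds or a postemergence spray on plants at the one- to two-leaf stage, 2 to 10 cm tall, all in loam soil–sand blend in the greenhouse.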

[2] = test system: barnyardgrass (Echinochloa crus-galli); assay: Test A preemergence; details: Echinochloa crus-galli, pre-emergence, 240 h, 0 to 100 scale where 0 is no effect and 100 is complete control, read-out: Barnyardgrass plant response rating
Outline: as §1

[3] = test system: giant foxtail (Setaria faberii); assay: Test A preemergence; details: Setaria faberi, pre-emergence, 240 h, 0 to 100 scale where 0 is no effect and 100 is complete control, read-out: Foxtail, Giant plant response rating
Outline: as §1

[4] = test system: pigweed (Amaranthus retroflexus); assay: Test A preemergence; details: Amaranthus retroflexus, pre-emergence, 240 h, 0 to 100 scale where 0 is no effect and 100 is complete control, read-out: Pigweed plant response rating
[5] = test system: ragweed (common ragweed, Ambrosia elatior); assay: Test A preemergence; details: Ambrosia artemisiifolia, pre-emergence, 240 h, 0 to 100 scale where 0 is no effect and 100 is complete control, read-out: Ragweed plant response rating
Outline: as §1

[6] = test system: ryegrass, Italian (Italian ryegrass, Lolium multiflorum); assay: Test A preemergence; details: Lolium multiflorum, pre-emergence, 240 h, 0 to 100 scale where 0 is no effect and 100 is complete control, read-out: Ryegrass, Italian plant response rating
Outline: as §1

[7] = test system: Galium (catchweed bedstraw, Galium aparine); assay: Test A postemergence; details: Galium, post-emergence, 240 h, Postemergence, read-out: Galium plant response rating (0 to 100 scale)
Outline: as §1

Kochia (Kochia scoparia) [8] = assay: Test A postemergence; details: Bassia scoparia, post-emergence, 240 h, Postemergence, read-out: Kochia plant response rating (0 to 100 scale)
Outline: as §1

[9] = test system: barnyardgrass (Echinochloa crus-galli); assay: Test A postemergence; details: Echinochloa crus-galli, post-emergence, 240 h, Postemergence
Outline: as §1

[10] = test system: blackgrass (Alopecurus myosuroides); assay: Test A postemergence; details: Alopecurus myosuroides, post-emergence, 240 h, Postemergence, read-out: Blackgrass plant response rating (0 to 100 scale)
Outline: as §1

corn (Zea mays) = assay: Test A postemergence; details: Zea mays, post-emergence, 240 h, Postemergence, read-out: Corn plant response rating (0 to 100 scale)
Outline: as §1

[11] = test system: giant foxtail (Setaria faberii); assay: Test A postemergence; details: Setaria faberi, post-emergence, 240 h, Postemergence, read-out: Foxtail, Giant plant response rating (0 to 100 scale)
Outline: as §1

[12] = test system: pigweed (Amaranthus retroflexus); assay: Test A postemergence; details: Amaranthus retroflexus, post-emergence, 240 h, Postemergence, read-out: Pigweed plant response rating (0 to 100 scale)
Outline: as §1

[13] = test system: ragweed (common ragweed, Ambrosia elatior); assay: Test A postemergence; details: Ambrosia artemisiifolia, post-emergence, 240 h, Postemergence, read-out: Ragweed plant response rating (0 to 100 scale)
Outline: as §1

[14] = test system: ryegrass, Italian (Italian ryegrass, Lolium multiflorum); assay: Test A postemergence; details: Lolium multiflorum, post-emergence, 240 h, Postemergence, read-out: Ryegrass, Italian plant response rating (0 to 100 scale)
Outline: as §1

[15] = test system: wheat (Triticum aestivum); assay: Test A postemergence; details: Triticum aestivum, post-emergence, 240 h, Postemergence, read-out: Wheat plant response rating (0 to 100 scale)
Outline: as §1

[16] = test system: barnyardgrass (Echinochloa crus-galli); assay: Test B flooded paddy test; details: Echinochloa crus-galli, 250 g ai/ha, Flood; 0 to 100 scale where 0 is no effect and 100 is complete control; read-out: Barnyardgrass plant response rating
Outline: (§2)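 Compound goes directly into floodwater once pots are flooded 3 cm above soil, targeting plants at two leaves; the water depth is then held for the test duration. Plants sit 13–15 d in a greenhouse and are rated visually, 100 denoting complete control.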

[17] = test system: ducksalad (Heteranthera limosa); assay: Test B flooded paddy test; details: Heteranthera limosa, 250 g ai/ha, Flood; 0 to 100 scale where 0 is no effect and 100 is complete control; read-out: Ducksalad plant response rating
Outline: as §2

rice (Oryra sativa) = assay: Test B flooded paddy test; details: Oryza sativa, 250 g ai/ha, Flood; 0 to 100 scale where 0 is no effect and 100 is complete control; read-out: Rice plant response rating
Outline: as §2

[18] = test system: sedge, umbrella (small-flower umbrella sedge, Cyperus difformis); assay: Test B flooded paddy test; details: Cyperus difformis, 250 g ai/ha, Flood; 0 to 100 scale where 0 is no effect and 100 is complete control; read-out: Sedge, Umbrella plant response rating
Outline: as §2

[19] = 125 g ai/ha, preemergence, visual injury rating, approximately 10 d
[20] = 125 g ai/ha, visual rating about 10 d after treatment
[21] = 31 g ai/ha, 0 is no effect, 100 is complete control

## CN1C[C@H](c2ccc3c(c2)C(F)(F)C(F)(F)O3)[C@@H](C(=O)Nc2cccc(F)c2F)C1=O [Compound 1271]
Kochia (Kochia scoparia) [1]; 31 g ai/ha, Preemergence
  pest or weed control at 31 g/ha: 30%
Kochia (Kochia scoparia) [1]; [19]
  pest or weed control at 125 g/ha: 40%
[2]; 31 g ai/ha, Preemergence
  pest or weed control at 31 g/ha: 90%
[2]; [19]
  pest or weed control at 125 g/ha: 90%
[3]; 31 g ai/ha, Preemergence
  pest or weed control at 31 g/ha: 80%
[3]; [19]
  pest or weed control at 125 g/ha: 90%
[4]; 31 g ai/ha, Preemergence
  pest or weed control at 31 g/ha: 0%
[4]; [19]
  pest or weed control at 125 g/ha: 50%
[5]; 31 g ai/ha, Preemergence
  pest or weed control at 31 g/ha: 0%
[5]; [19]
  pest or weed control at 125 g/ha: 20%
[6]; 31 g ai/ha, Preemergence
  pest or weed control at 31 g/ha: 70%
[6]; [19]
  pest or weed control at 125 g/ha: 90%
[7]; [20]
  pest or weed control at 125 g/ha: 60%
[7]; [21]
  pest or weed control at 31 g/ha: 60%
Kochia (Kochia scoparia) [8]; [20]
  pest or weed control at 125 g/ha: 40%
Kochia (Kochia scoparia) [8]; [21]
  pest or weed control at 31 g/ha: 20%
[9]; 125 g ai/ha, visual rating about 10 d after treatment, read-out: Barnyardgrass plant response rating (0 to 100 scale, 0 no effect, 100 complete control)
  pest or weed control at 125 g/ha: 60%
[9]; 31 g ai/ha, 0 is no effect, 100 is complete control, read-out: Barnyardgrass plant response rating (0 to 100 scale)
  pest or weed control at 31 g/ha: 40%
[10]; [20]
  pest or weed control at 125 g/ha: 30%
[10]; [21]
  pest or weed control at 31 g/ha: 0%
Corn (Zea mays); [20]
  plant injury at 125 g/ha: 40%
Corn (Zea mays); [21]
  plant injury at 31 g/ha: 30%
[11]; [20]
  pest or weed control at 125 g/ha: 80%
[11]; [21]
  pest or weed control at 31 g/ha: 20%
[12]; [20]
  pest or weed control at 125 g/ha: 30%
[12]; [21]
  pest or weed control at 31 g/ha: 20%
[13]; [20]
  pest or weed control at 125 g/ha: 0%
[13]; [21]
  pest or weed control at 31 g/ha: 0%
[14]; [20]
  pest or weed control at 125 g/ha: 30%
[14]; [21]
  pest or weed control at 31 g/ha: 0%
[15]; [20]
  plant injury at 125 g/ha: 60%
[15]; [21]
  plant injury at 31 g/ha: 20%
[16]
  pest or weed control at 250 g/ha: 40%
[17]
  pest or weed control at 250 g/ha: 90%
Rice (Oryra sativa)
  pest or weed control at 250 g/ha: 0%
[18]
  pest or weed control at 250 g/ha: 0%

Source: patent US12077503B2, “Substituted cyclic amides and their use as herbicides” (FMC CORPORATION, priority 2015, dated 2024)
